From patent US4605739A, “Benzoyl indolecarboxylates” (Kowa Co., Ltd., priority 1983, dated 1986)

Biological target: chymotrypsin (Bos taurus, UniProt P00766)
Experiment: chymotrypsin inhibitory effect (procedure of Muramatsu et al; acetyl-L-tyrosine ethyl ester substrate, Hestrin method)
Assay type: biochemical
Conditions: 10 min preincubation, pH 8.0 Tris-HCl, 37° C., 30 min, absorbance 530 nm, read-out: Inhibitory Activity, 50% Inhibitory Concentration
Method: Some selected compounds of this invention were tested with respect to their chymotrypsin inhibitory effects.
The tests were conducted in accordance with the procedure of Muramatsu et al [The Journal of Biochemistry, 62, 408 (1967)]. A mixture was prepared which was made up of 0.1 ml of a dimethylsulfoxide solution of each test compound, 0.1 ml of water and 0.1 ml of a buffer solution containing 10 μg/ml of chymotrypsin (0.1M Tris-HCl buffer, pH 8.0). The mixture was incubated for 10 minutes, followed by addition of 0.2 ml of a buffer solution containing 25 mM of an ethyl ester of acetyl-L-tyrosine. The resulting mixture was reacted at 37° C. for 30 minutes. The remaining substrate was caused to develop a color by the Hestrin method, whereupon its absorbance was measured at 530 nm. For comparative purposes, use was made of tosylphenylalanine chloromethyl ketone (TPCK) which is known as a good inhibitor for chymotrypsin.

SMILES	IC50
CCCCc1ccc2[nH]c(C)c(CC(=O)Oc3ccc(C(=O)N4CCN(C(C)C)CC4)cc3)c2c1 [Example 5]	600 nM
CC(C)N1CCN(C(=O)c2ccc(OC(=O)Cc3c[nH]c4ccccc34)cc2)CC1 [Example 14]	6000 nM
COc1ccc2c(c1)c(CC(=O)Oc1ccc(C(=O)N3CCN(C(C)C)CC3)cc1)c(C)n2C [Example 2]	300 nM
COc1ccc2[nH]cc(CC(=O)Oc3ccc(C(=O)N4CCN(C(C)C)CC4)cc3)c2c1 [Example 7]	80 nM
Cc1ccc2[nH]c(C)c(CC(=O)Oc3ccc(C(=O)N4CCN(C(C)C)CC4)cc3)c2c1 [Example 4]	500 nM
Cc1ccc(S(=O)(=O)NC(Cc2ccccc2)C(=O)CCl)cc1 (centres unmarked) [TPCK, tosylphenylalanine chloromethyl ketone, reference compound]	500000 nM
COc1ccc2[nH]c(C)c(CC(=O)Oc3ccc(C(=O)N4CCN(C(C)C)CC4)cc3)c2c1 [Example 3]	400 nM
Cc1[nH]c2ccccc2c1CC(=O)Oc1ccc(C(=O)N2CCN(C(C)C)CC2)cc1 [Example 10]	700 nM
